Test results reported in US8178058B2, “High throughput cell-based assays, methods of use and kits” (EMD Millipore Corporation, priority 2007, dated 2012).

Tested on: activated caspases
Test: Cell based apoptosis assay (FLICA FAM-VAD-FMK staining, gravity washing, flow cytometry)
Conditions: cells treated 2 hours at 37° C with 10, 0.63, 0.06 microMolar Staurosporine vs non-induced control
Procedure: Cell based apoptosis assay was performed using gravity based filtration.
Cells were treated with increasing concentration of well-known apoptosis inducer (Staurosporine) for 2 hours at 37° C. After induction, cells were treated with FLICA. Unbound FLICAs were removed from the nonapoptotic cells by gravity washing the cells with wash buffer 4 times. After gravity washing cells labeled with FLICAs (FAM-VAD-FMK, pan-caspases FLICA) was examined by flow cytometry.
Shown in FIGS. 10A and B are flow cytometric histograms of FAM-VAD-FMK stained cells from induced (10, 0.63, 0.06 microMolar of Staurosporine) and non-induced control samples.
Notice the dose response.

Question: How did the “apoptotic cell population (FAM-VAD-FMK percent positive population)” value turn out when `CN[C@@H]1C[C@H]2O[C@@](C)([C@@H]1OC)n1c3ccccc3c3c4c(c5c6ccccc6n2c5c31)C(=O)NC4` [Staurosporine] was run?
Answer: Its value is “Increase in apoptotic cell population”.
